# Tests used:
# [1] = test system: NCI-60 cancer cell line panel; parameters: method as in PMID 33970717; conditions: earlier study; read-out: GI50 range against NCI-60; cited from earlier work
# chorioallantoic membrane = assay: HET-CAM irritation assay; conditions: in vivo
# Text: HET-CAM assay was used in order to assess the toxicity of compounds 6 and 7 (Figure 16); the procedure is a low-cost, unique model in biomedical research that allows the testing of the irritation potency of chemical compounds while simultaneously avoiding in vivo experiments. […] The Luepke scale was used to establish the irritation score: 0–0.9 indicates non-irritant, 1–4.9 indicates weakly irritant, 5–8.9 indicates moderately irritant, and 9–21 means strongly irritant.
# Compounds 6 and 7 were also evaluated in terms of biocompatibility on mucosal tissues by using the in vivo Hen’s Egg Chorioallantoic Membrane Test (HET-CAM assay). The assay assesses a potential irritant effect on the vascular plexus of the chorioallantoic membrane. The HET-CAM method was carried out following ICCVAM recommendations published in November 2016 in Appendix G and adapted to our laboratory conditions. Thus, 300 µL of control or test solution, respectively, was applied on CAM and the alterations induced at the CAM level were monitored by means of stereomicroscopy (Discovery 8 Stereomicroscope, Zeiss), registering significant images (Axio CAM 105 color, Zeiss), before the application and after 5 min contact with the samples. All images were processed using Zeiss ZEN software, Gimp 2.8 and ImageJ software. Negative control was represented by distilled water and solvent control DMSO 0.5%, while the positive control by the sodium lauryl sulphate (SLS) 0.5% in distillate water. The test substances were tested in concentrations of 1 µM. The observation time of the produced reactions was 5 min (300 s) and the time, at which the occurrence of a particular reaction took place was recorded in seconds. Finally, the following reactions were monitored: hemorrhage—H (blood vessel bleeding), vascular lysis —L (disintegration of blood vessels), and coagulation —C (intra or extra- vascular protein denaturizing). A variety of analysis methods may be used to assess irritancy potential of test substances. One analysis method that has been used extensively used is an irritation score (IS) calculated according to the following formula: IS=5×301−SecH/300+[…]/300+9×301−SecC/300 where H = hemorrhage; L = vessel lysis; C = coagulation; Hemorrhage time (Sec H) = onset of hemorrhage reactions on CAM (in sec); Lysis time (Sec L) = onset of vessel lysis on CAM (in sec); Coagulation time (Sec C) = onset of coagulation formation on CAM (in sec). The formula comprises a factor indicating the impact of the observed effect on vascular damage, e.g., coagulation has the highest impact expressed by the multiplication factor 9. The IS values range on a scale between 0 and 21.
# [2] = parameters: method as in PMID 11527742, doi:10.1007/s00044-018-2189-6, PMID 32956968; conditions: literature data; cited from earlier work
Molecule,GI50 [1] [µM],also measured
"2,30-bis-(3-pyridinylidene)-platanic acid",1 to 2,–
3-pyridinylidene-messagenin,1 to 2,–
"CCCCCCCCCCCCOS(=O)(=O)[O-].[Na+] [SLS 0.5%, sodium laurylsulphate, reference compound]",–,Type of Effect (chorioallantoic membrane): Strong irritant
CC(=O)[C@@H]1CC[C@]2(C(=O)O)CC[C@]3(C)[C@H](CC[C@@H]4[C@@]5(C)CC[C@H](O)C(C)(C)[C@@H]5CC[C@]43C)[C@@H]12 [platanic acid],–,GI50 [2]: > 50 µM

# — PMC8509773, “3-Pyridinylidene Derivatives of Chemically Modified Lupane and Ursane Triterpenes as Promising Anticancer Agents by Targeting Apoptosis” (International Journal of Molecular Sciences, 2021)
